Measurements: publication PMC5218480 (PLoS ONE, 2017)

Tested on: MV-4-11 cells
Test: Gene expression microarray analysis (Affymetrix PrimeView) and GSEA
Assay type: cell-based, human
Design: RFU PODN (11730768_x_at) / Fold change /veh PODN (11730768_x_at) / RFU LINC00158 (11744669_a_at) / Fold change /veh LINC00158 (11744669_a_at) / RFU DUSP10 (11751237_a_at) / Fold change /veh DUSP10 (11751237_a_at) / RFU ID3 (11757404_x_at) / Fold change /veh ID3 (11757404_x_at) / RFU PLEKHG5 (11737974_s_at) / Fold change /veh PLEKHG5 (11737974_s_at) / RFU LRRC4B (11730491_at) / Fold change /veh LRRC4B (11730491_at) / RFU GIMAP4 (11747438_a_at) / Fold change /veh GIMAP4 (11747438_a_at) / RFU KRT8 (11758183_x_at) / Fold change /veh KRT8 (11758183_x_at) / RFU CNN1 (11734310_a_at) / Fold change /veh CNN1 (11734310_a_at) / RFU VPS37D (11726825_at) / Fold change /veh VPS37D (11726825_at) / RFU C10orf10 (11716522_x_at) / Fold change /veh C10orf10 (11716522_x_at) / RFU KIR2DL2 /// KIR2DL4 /// KIR2DL5A /// KIR2DL5B /// KIR2DS1 /// KIR2DS2 /// KIR2DS3 /// KIR2DS4 /// KIR3DL3 /// KIR3DL3 /// KIR3DS1 (11738374_at) / Fold change /veh KIR2DL2 /// KIR2DL4 /// KIR2DL5A /// KIR2DL5B /// KIR2DS1 /// KIR2DS2 /// KIR2DS3 /// KIR2DS4 /// KIR3DL3 /// KIR3DL3 /// KIR3DS1 (11738374_at) / RFU C1QL1 (11718748_at) / Fold change /veh C1QL1 (11718748_at) / RFU TMPRSS4 (11747572_a_at) / Fold change /veh TMPRSS4 (11747572_a_at) / RFU HAMP (11756126_x_at) / Fold change /veh HAMP (11756126_x_at) / RFU RNFT2 (11725882_a_at) / Fold change /veh RNFT2 (11725882_a_at) / RFU NR4A2 (11747474_a_at) / Fold change /veh NR4A2 (11747474_a_at) / RFU ABCC12 (11746883_a_at) / Fold change /veh ABCC12 (11746883_a_at) / RFU TMEM136 (11760407_x_at) / Fold change /veh TMEM136 (11760407_x_at) / RFU CLDN22 /// WWC2 (11732394_at) / Fold change /veh CLDN22 /// WWC2 (11732394_at) / RFU HLA-DPB1 (11760878_x_at) / Fold change /veh HLA-DPB1 (11760878_x_at) / RFU SPINT1 (11716480_a_at) / Fold change /veh SPINT1 (11716480_a_at) / RFU GAP43 (11754022_s_at) / Fold change /veh GAP43 (11754022_s_at) / RFU A4GNT (11735810_at) / Fold change /veh A4GNT (11735810_at) / RFU PRB3 (11715151_x_at) / Fold change /veh PRB3 (11715151_x_at) / RFU TUBB4B (11761932_at) / Fold change /veh TUBB4B (11761932_at) / RFU CAPN14 (11732068_a_at) / Fold change /veh CAPN14 (11732068_a_at) / RFU TMCC2 (11721928_a_at) / Fold change /veh TMCC2 (11721928_a_at) / RFU IRGQ (11745062_a_at) / Fold change /veh IRGQ (11745062_a_at) / RFU FAM174B (11720279_a_at) / Fold change /veh FAM174B (11720279_a_at) / RFU TMPRSS4 (11748680_a_at) / Fold change /veh TMPRSS4 (11748680_a_at) / RFU FAM212B (11763350_a_at) / Fold change /veh FAM212B (11763350_a_at) / RFU PLEKHG5 (11743358_a_at) / Fold change /veh PLEKHG5 (11743358_a_at) / RFU ZSCAN30 (11745921_a_at) / Fold change /veh ZSCAN30 (11745921_a_at) / RFU CMKLR1 (11741424_a_at) / Fold change /veh CMKLR1 (11741424_a_at) / RFU LOC101060620 /// MAPK8IP1 (11723275_at) / Fold change /veh LOC101060620 /// MAPK8IP1 (11723275_at) / RFU SPTSSB (11747773_x_at) / Fold change /veh SPTSSB (11747773_x_at) / RFU PRSS12 (11739890_at) / Fold change /veh PRSS12 (11739890_at) / RFU BIN1 (11741810_x_at) / Fold change /veh BIN1 (11741810_x_at) / RFU WNT11 (11732464_a_at) / Fold change /veh WNT11 (11732464_a_at) / RFU C10orf10 (11716521_a_at) / Fold change /veh C10orf10 (11716521_a_at) / RFU C5orf56 (11738089_at) / Fold change /veh C5orf56 (11738089_at) / RFU CYB561 (11721691_x_at) / Fold change /veh CYB561 (11721691_x_at) / RFU ANKRD19P (11752326_a_at) / Fold change /veh ANKRD19P (11752326_a_at) / RFU OR2T12 /// OR2T33 /// OR2T8 (11738714_s_at) / Fold change /veh OR2T12 /// OR2T33 /// OR2T8 (11738714_s_at) / RFU VCAN (11748164_a_at) / Fold change /veh VCAN (11748164_a_at) / RFU JSRP1 (11732532_at) / Fold change /veh JSRP1 (11732532_at) / RFU KRTAP10-11 (11738290_x_at) / Fold change /veh KRTAP10-11 (11738290_x_at) / RFU MYO3A (11730013_a_at) / Fold change /veh MYO3A (11730013_a_at) / RFU EBF3 (11725865_a_at) / Fold change /veh EBF3 (11725865_a_at) / RFU CAMK2N1 (11719241_x_at) / Fold change /veh CAMK2N1 (11719241_x_at) / RFU C5orf56 (11738088_a_at) / Fold change /veh C5orf56 (11738088_a_at) / RFU OLFML3 (11715873_a_at) / Fold change /veh OLFML3 (11715873_a_at) / RFU LOC100653217 /// NTM (11731650_a_at) / Fold change /veh LOC100653217 /// NTM (11731650_a_at) / RFU MAPK11 (11762145_a_at) / Fold change /veh MAPK11 (11762145_a_at) / RFU FIZ1 (11724087_x_at) / Fold change /veh FIZ1 (11724087_x_at) / RFU OASL (11726364_x_at) / Fold change /veh OASL (11726364_x_at) / RFU SOX15 (11748057_x_at) / Fold change /veh SOX15 (11748057_x_at) / RFU CD79A (11719716_a_at) / Fold change /veh CD79A (11719716_a_at) / RFU HIST1H1D (11736915_at) / Fold change /veh HIST1H1D (11736915_at) / RFU CASKIN2 (11723855_a_at) / Fold change /veh CASKIN2 (11723855_a_at) / RFU LOC730098 (11760151_x_at) / Fold change /veh LOC730098 (11760151_x_at) / RFU OR4N2 (11742367_at) / Fold change /veh OR4N2 (11742367_at) / RFU PRRT2 (11749266_a_at) / Fold change /veh PRRT2 (11749266_a_at) / RFU SNX32 (11753110_a_at) / Fold change /veh SNX32 (11753110_a_at) / RFU CDHR5 (11726645_a_at) / Fold change /veh CDHR5 (11726645_a_at) / RFU RCAN1 (11760418_a_at) / Fold change /veh RCAN1 (11760418_a_at) / RFU FAM167A (11723789_a_at) / Fold change /veh FAM167A (11723789_a_at) / RFU FAM26E (11764081_at) / Fold change /veh FAM26E (11764081_at) / RFU ISYNA1 (11749810_s_at) / Fold change /veh ISYNA1 (11749810_s_at) / RFU ACY1 (11761880_at) / Fold change /veh ACY1 (11761880_at) / RFU 11764098_at / Fold change /veh 11764098_at / RFU SAMD14 (11745864_x_at) / Fold change /veh SAMD14 (11745864_x_at) / RFU NPB (11741838_a_at) / Fold change /veh NPB (11741838_a_at) / RFU TMPRSS6 (11731388_a_at) / Fold change /veh TMPRSS6 (11731388_a_at) / RFU KRTAP10-2 (11738614_at) / Fold change /veh KRTAP10-2 (11738614_at) / RFU ARHGAP8 /// PRR5-ARHGAP8 (11727945_x_at) / Fold change /veh ARHGAP8 /// PRR5-ARHGAP8 (11727945_x_at) / RFU KRTAP5-7 /// NADSYN1 (11734609_at) / Fold change /veh KRTAP5-7 /// NADSYN1 (11734609_at) / RFU RASL12 (11751679_a_at) / Fold change /veh RASL12 (11751679_a_at) / RFU CDKN2B (11736163_a_at) / Fold change /veh CDKN2B (11736163_a_at) / RFU PRF1 (11729649_at) / Fold change /veh PRF1 (11729649_at) / RFU, ZNF638 /// ZNF638-IT1 / Fold change vs veh, ZNF638 /// ZNF638-IT1 / RFU, PANK3 / Fold change vs veh, PANK3 / RFU, SH3YL1 / Fold change vs veh, SH3YL1 / RFU, ZEB2 / Fold change vs veh, ZEB2 / RFU, NRIP1 / Fold change vs veh, NRIP1 / RFU, PTTG1IP / Fold change vs veh, PTTG1IP / RFU, CAPN2 / Fold change vs veh, CAPN2 / RFU, MED14 / Fold change vs veh, MED14 / RFU, SNORA58 / Fold change vs veh, SNORA58 / RFU, C1orf63 / Fold change vs veh, C1orf63 / RFU, LRRFIP1 / Fold change vs veh, LRRFIP1 / RFU, NDUFAF7 / Fold change vs veh, NDUFAF7 / RFU, SLC12A2 / Fold change vs veh, SLC12A2 / RFU, IBTK / Fold change vs veh, IBTK / RFU, ESF1 / Fold change vs veh, ESF1 / Fold change vs veh, TMEM50B / RFU, TAOK1 / Fold change vs veh, TAOK1 / RFU, ACBD3 / Fold change vs veh, ACBD3 / RFU, TMA16 / Fold change vs veh, TMA16 / RFU, RWDD3 / Fold change vs veh, RWDD3 / RFU, BCAT1 / Fold change vs veh, BCAT1 / RFU, EDEM3 / Fold change vs veh, EDEM3 / RFU, TMEM33 / Fold change vs veh, TMEM33 / RFU, WDR75 / Fold change vs veh, WDR75 / RFU, AHCTF1 / Fold change vs veh, AHCTF1 / RFU, TFRC / Fold change vs veh, TFRC / RFU, ZDHHC17 / Fold change vs veh, ZDHHC17 / RFU, NOM1 / Fold change vs veh, NOM1 / RFU, ARL8B / Fold change vs veh, ARL8B / RFU, ZBTB11 / Fold change vs veh, ZBTB11 / RFU, TAMM41 / Fold change vs veh, TAMM41 / RFU, KIAA1704 /// LOC100996395 / Fold change vs veh, KIAA1704 /// LOC100996395 / RFU, ING1 / Fold change vs veh, ING1 / RFU, TRMT61B / Fold change vs veh, TRMT61B / RFU, FUBP3 / Fold change vs veh, FUBP3 / RFU, TP53 / Fold change vs veh, TP53 / RFU, TNKS2 / Fold change vs veh, TNKS2 / RFU, ZFP14 / Fold change vs veh, ZFP14 / RFU, ACTR2 / Fold change vs veh, ACTR2 / RFU, PPP3R1 / Fold change vs veh, PPP3R1 / RFU, PIK3R1 / Fold change vs veh, PIK3R1 / RFU, HNRNPA1 / Fold change vs veh, HNRNPA1 / RFU, RNF170 / Fold change vs veh, RNF170 / RFU, ZNF28 / Fold change vs veh, ZNF28 / RFU, RNGTT / Fold change vs veh, RNGTT / RFU, OGT / Fold change vs veh, OGT / RFU, BRD1 / Fold change vs veh, BRD1 / RFU, MARS / Fold change vs veh, MARS / RFU, ZNF655 / Fold change vs veh, ZNF655 / RFU, FAHD1 / Fold change vs veh, FAHD1 / RFU, BDP1 / Fold change vs veh, BDP1 / RFU, LRRCC1 / Fold change vs veh, LRRCC1 / RFU, ARID1A / Fold change vs veh, ARID1A / RFU, ZNF146 / Fold change vs veh, ZNF146 / RFU, ZNF330 / Fold change vs veh, ZNF330 / RFU, GPN3 / Fold change vs veh, GPN3 / RFU, C9orf123 / Fold change vs veh, C9orf123 / RFU, N4BP2L2 / Fold change vs veh, N4BP2L2 / RFU, ARFIP1 / Fold change vs veh, ARFIP1 / RFU, FAM179B / Fold change vs veh, FAM179B / RFU, BCL10 / Fold change vs veh, BCL10 / RFU, UHRF1BP1L / Fold change vs veh, UHRF1BP1L / RFU, BET1 / Fold change vs veh, BET1 / RFU, CNOT2 / Fold change vs veh, CNOT2 / RFU, ZNF268 / Fold change vs veh, ZNF268 / Fold change vs veh, ZNF507 / RFU, DGCR2 / Fold change vs veh, DGCR2 / RFU, WDSUB1 / Fold change vs veh, WDSUB1 / Fold change vs veh, HSP90B1 /// MIR3652 / RFU, ADSS / Fold change vs veh, ADSS / RFU, GK / Fold change vs veh, GK / RFU, ZNF148 / Fold change vs veh, ZNF148 / RFU, TAF9 / Fold change vs veh, TAF9 / RFU, SLC1A5 / Fold change vs veh, SLC1A5 / RFU, SLMO2 / Fold change vs veh, SLMO2 / RFU, ABCC4 / Fold change vs veh, ABCC4 / RFU, LOC101060439 /// RAP1B / Fold change vs veh, LOC101060439 /// RAP1B / RFU, RFX7 / Fold change vs veh, RFX7 / RFU, GTPBP10 / Fold change vs veh, GTPBP10 / RFU, CNEP1R1 / Fold change vs veh, CNEP1R1 / RFU, BIVM-ERCC5 /// ERCC5 / Fold change vs veh, BIVM-ERCC5 /// ERCC5 / RFU, ILF3 / Fold change vs veh, ILF3 / RFU 11762660_at / Fold change /veh 11762660_at / RFU VCAN (11757783_s_at) / Fold change /veh VCAN (11757783_s_at) / RFU DDX43 (11728927_at) / Fold change /veh DDX43 (11728927_at) / RFU KRT8 (11758188_x_at) / Fold change /veh KRT8 (11758188_x_at) / RFU NKD1 (11759106_at) / Fold change /veh NKD1 (11759106_at) / RFU SRD5A1 (11742802_a_at) / Fold change /veh SRD5A1 (11742802_a_at) / RFU TPSAB1 /// TPSB2 (11721975_s_at) / Fold change /veh TPSAB1 /// TPSB2 (11721975_s_at) / RFU GSTM3 (11746129_a_at) / Fold change /veh GSTM3 (11746129_a_at) / RFU IL23R (11737362_x_at) / Fold change /veh IL23R (11737362_x_at) / RFU TMEM51 (11727254_a_at) / Fold change /veh TMEM51 (11727254_a_at) / RFU PIWIL2 (11732686_x_at) / Fold change /veh PIWIL2 (11732686_x_at) / RFU ORM1 (11744905_x_at) / Fold change /veh ORM1 (11744905_x_at) / RFU CCDC152 (11743942_at) / Fold change /veh CCDC152 (11743942_at) / RFU ECM1 (11717891_a_at) / Fold change /veh ECM1 (11717891_a_at) / RFU IL23R (11748794_a_at) / Fold change /veh IL23R (11748794_a_at) / RFU TNFAIP8L3 (11732012_x_at) / Fold change /veh TNFAIP8L3 (11732012_x_at) / RFU MBOAT4 (11741988_at) / Fold change /veh MBOAT4 (11741988_at) / RFU 11764193_at / Fold change /veh 11764193_at / RFU TMEM53 (11763286_at) / Fold change /veh TMEM53 (11763286_at) / RFU MAGEB2 (11727129_at) / Fold change /veh MAGEB2 (11727129_at) / RFU TMEM200A (11744735_a_at) / Fold change /veh TMEM200A (11744735_a_at) / RFU CCDC152 (11751479_a_at) / Fold change /veh CCDC152 (11751479_a_at) / RFU FAM211A (11726209_a_at) / Fold change /veh FAM211A (11726209_a_at) / RFU RGS16 (11746705_a_at) / Fold change /veh RGS16 (11746705_a_at) / RFU VCAN (11755009_s_at) / Fold change /veh VCAN (11755009_s_at) / RFU RHOB (11743442_s_at) / Fold change /veh RHOB (11743442_s_at) / RFU RGS16 (11720943_a_at) / Fold change /veh RGS16 (11720943_a_at) / RFU RGS16 (11720944_at) / Fold change /veh RGS16 (11720944_at) / RFU, VPS4B / Fold change vs veh, VPS4B / RFU, CREB1 / Fold change vs veh, CREB1 / RFU, DNAJC13 / Fold change vs veh, DNAJC13 / RFU, GNAQ / Fold change vs veh, GNAQ / RFU, CDK5R1 / Fold change vs veh, CDK5R1 / RFU, ZRANB3 / Fold change vs veh, ZRANB3 / RFU, CUL4A / Fold change vs veh, CUL4A / RFU, CCNY / Fold change vs veh, CCNY / RFU, UFL1 / Fold change vs veh, UFL1 / RFU, COG3 / Fold change vs veh, COG3 / RFU, DIAPH2 / Fold change vs veh, DIAPH2 / RFU, SKA2 / Fold change vs veh, SKA2 / RFU, AFF3 / Fold change vs veh, AFF3 / RFU, LMF1 / Fold change vs veh, LMF1 / RFU, IPO11 / Fold change vs veh, IPO11 / RFU, DFFB / Fold change vs veh, DFFB / RFU, FOXP1 / Fold change vs veh, FOXP1 / RFU, CARD8 / Fold change vs veh, CARD8 / RFU, STRN3 / Fold change vs veh, STRN3 / RFU, ADK / Fold change vs veh, ADK / RFU, RASSF2 / Fold change vs veh, RASSF2 / RFU, WIPF1 / Fold change vs veh, WIPF1 / RFU, LARP1B / Fold change vs veh, LARP1B / RFU, RASA1 / Fold change vs veh, RASA1 / RFU, RB1 / Fold change vs veh, RB1 / RFU, PPFIA1 / Fold change vs veh, PPFIA1 / RFU, MAT2A / Fold change vs veh, MAT2A / RFU, CCT5 / Fold change vs veh, CCT5 / RFU, WDR92 / Fold change vs veh, WDR92 / RFU, CUX1 / Fold change vs veh, CUX1 / RFU, TTC7A / Fold change vs veh, TTC7A / RFU, TMEM135 / Fold change vs veh, TMEM135 / RFU, DEPTOR / Fold change vs veh, DEPTOR / RFU, CPM / Fold change vs veh, CPM / RFU, DNAJB6 / Fold change vs veh, DNAJB6 / RFU, CACNA2D3 / Fold change vs veh, CACNA2D3 / RFU, DTX4 / Fold change vs veh, DTX4 / RFU, TFCP2 / Fold change vs veh, TFCP2 / RFU, GMCL1 /// GMCL1P1 / Fold change vs veh, GMCL1 /// GMCL1P1 / RFU, AEBP2 / Fold change vs veh, AEBP2 / RFU, SNHG1 /// SNORD22 /// SNORD25 /// SNORD26 /// SNORD27 /// SNORD28 /// SNORD29 /// SNORD31 / Fold change vs veh, SNHG1 /// SNORD22 /// SNORD25 /// SNORD26 /// SNORD27 /// SNORD28 /// SNORD29 /// SNORD31 / Fold change (Aza/veh), C12orf56 (ProbeSet 11735607_a_at) / Fold change (ACY-1035/veh), C12orf56 (ProbeSet 11735607_a_at) / Fold change (Aza/veh), FGFR1OP (ProbeSet 11751329_s_at) / Fold change (ACY-1035/veh), FGFR1OP (ProbeSet 11751329_s_at) / Fold change (Aza/veh), VPS36 (ProbeSet 11739960_a_at) / Fold change (ACY-1035/veh), VPS36 (ProbeSet 11739960_a_at) / RFU SYPL1 (11715823_x_at) / Fold change /veh SYPL1 (11715823_x_at) / RFU IGFBP7 (11715501_s_at) / Fold change /veh IGFBP7 (11715501_s_at) / RFU REEP3 (11722064_at) / Fold change /veh REEP3 (11722064_at) / RFU IGLL1 (11728026_x_at) / Fold change /veh IGLL1 (11728026_x_at): dose or concentration left out as unconfirmed
Details: MV-4-11 cells, 48 hours

In the case of `Nc1ccc(-c2cccs2)cc1NC(=O)c1ccc2c(c1)cc(C1CC1)n2CCN1CCOCC1` [ACY-1035], the “RFU PRSS12 (11739890_at)” value is reported as 8.28 RFU.
